Measured values published in US12383628B2 (priority 2016, dated 2025).
Square brackets hold non-standard residues; d marks the D form. Peptide text beside a SMILES is read from it. Dmt = Cc1cc(O)cc(C)c1C[C@H](N)C(=O)O

Key:
[1] = 37° C., 9 μM
Method: Human plasma was obtained from the Belgian Red Cross (Vlaams-Brabant, Leuven). Prior to the stability test, selectivity, stability of the compound in the injection solvent, linearity, accuracy and precision of the method were investigated. Frozen (−20° C.) human plasma samples were thawed and thermostated to 37±2° C. Dissolution of the lyophilized peptide and consecutive dilutions were performed in water. The resulting aqueous solutions of each peptide individually was spiked in human plasma (10:90 v/v) with final plasma concentrations of 9 μM.
On every time point 100 μL spiked plasma was transferred to a 500 μL Eppendorf tube and a protein crash was performed using the corresponding precipitation solvent (4° C.). Suspensions were vortexed for 15 s and placed at 4° C. for 30 to 45 min. After centrifugation at 18 625 g for 20 min, 100 μL supernatant was diluted with 100 μL water in the injection vial.
Injection samples were vortexed for 5 sand placed in the autosampler. […] Concentrations were calculated by use of the calibration curve and transferred to a semi-log chart presenting the log concentrations as a function of time. The optimum curve was used to calculate the peptide half-life. Calculations were performed using Microsoft® Office Professional 2010 Excel.

[2] = TEM / cryo-TEM fibre morphology of hydrogels; format: physicochemical; conditions: cryoTEM and negative staining, Example 9
Method: Formvar carbon-coated 400-mesh copper grids (Agar Scientific, Stansted, United Kingdom) were treated with plasma using an ELMO Glow discharge system to clean the grid surface and to render the carbon surface hydrophilic. Hydrogel samples were prepared 12 h in advance as described above. Small aliquots of sample (5 μL) were pipetted onto the carbon grids for adsorption. After 30 s, excess of sample was removed by using a Whatman 541 filter paper. The loaded grids were stained during 10 s with 1% uranyl formate after which the grids were air-dried. Samples were analysed using a JEOL JEM-1400 transmission electron microscope, operating at accelerating voltage of 120 kV. Images were recorded on a CMOS TemCam-F416 camera and accessory software of TVIPS.
200-mesh copper grids coated with perforated carbon film (Lacey carbon film: ProSci-Tech Old, Australia) were used and were glow discharged in nitrogen for 5 s immediately prior to use. Hydrogel samples were prepared 12 h in advance as described above. Small aliquots of sample (4 μL) were pipetted onto the carbon grids for adsorption. After 30 s, excess of sample was removed by using a Whatman 541 filter paper. The grid was then plunged into liquid ethane cooled by liquid nitrogen. Frozen grids were stored in liquid nitrogen until required. Samples were analysed using a Gatan 626 cryoholder and Tecnai 12 Transmission electron microscope, operating at accelerating voltage of 120 kV. Images were recorded using an FEI Eagle 4k×4k CCD camera.

[3] = Peptide gelation (tilted tube / inverted vial test, minimum gelation concentration); format: physicochemical; conditions: in PBS; '/' = no gel
How it was run: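 TFA salt of peptide dissolved (1 or 2 mg per 100 μL) in PBS pH 7.4 or 0.9% NaCl saline, vortexed and sonicated, then left overnight at room temperature. Gelation judged by inverted vial test: no gravitational flow means gel. Rheology by dynamic rheometry at 37° C (G′, G″, tan δ).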

Male CD1 mice = experiment: Radiant heat tail-flick test of biogel compositions s.c. (in solution or as a gel); format: in vivo, mouse; conditions: injection volume of 150 μl
Method: Male CD1 mice (6-8 weeks old, body weight average 30 g) were obtained from Charles River (Sulzfeld, Germany). Mice were group-housed in a temperature controlled room with a 12 h light/dark cycle and with free access to food and water. All animal studies were conducted in accordance with ethical guidelines and animal welfare standards according to Austrian regulations for animal research, and were approved by the Committee of Animal Care of the Austrian Federal Ministry of Science and Research. […]
The radiant heat tail-flick test was used to assess antinociceptive effects of tested drugs after s.c. administration in mice using an UB 37360 Ugo Basile analgesiometer (Ugo Basile s.r.l., Varese, Italy) as described previously (A. Novoa et al., 2012). The reaction time required by the mouse to remove its tail due to the radiant heat was measured and defined as the tail-flick latency. […] The antinociceptive response was expressed as percent of Maximum Possible Effect (% MPE)=[(TL-BL)/(cut-off time-BL)]×100. Data were analyzed with ANOVA using Tukey's multiple comparison test, and graphically processed with the GraphPad Prism Software (GraphPad Software Inc., San Diego, CA). […]

[4] = Stability and degradability of biogels in human plasma (Example 8); format: in vitro ADME; conditions: human plasma, 37° C.
Method: After centrifugation at 14 000 rpm for 15 minutes, 100 μL supernatant was diluted with 100 μL milliQ water in the injection vial. Injection samples were vortexed for 5 seconds and were analyzed by HPLC. […] Calculations were performed using Microsoft® Office Professional 2010 Excel.

| SMILES | Stability in human plasma [1] | Fibre diameter [2] [nm] | Minimum gelation concentration (w/v % in PBS) [3] [w/v %] | Release profile as biogel in tail-flick test (Male CD1 mice) | Time at which degradation of the heptapeptide into the N-terminal pentapeptide started [4] [min] | Time at which degradation of the pentapeptide into tripeptide was observed [4] [min] | Time of appearance of the heptapeptide (loss of Phe-Lys-NH2) [4] [min] | half-life at 14 μM ([4]; human, in solution, 14 μM) [min] |
| --- | --- | --- | --- | --- | --- | --- | --- | --- |
| NCCCC[C@@H](N)C(=O)N[C@H](Cc1ccccc1)C(=O)N[C@H](CCC(N)=O)C(=O)N[C@H](Cc1ccccc1)C(=O)N[C@H](CCC(=O)O)C(=O)N[C@H](Cc1ccccc1)C(N)=O [peptide 24, H-DLys-DPhe-DGln-DPhe*-DGlu-DPhe-NH2] (H-[dK][dF][dQ][dF][dE][dF]-NH2) | remains intact after 25 h of incubation | ~5 | 2 | – | – | – | – | – |
| Cc1cc(O)cc(C)c1C[C@H](N)C(=O)N[C@H](CCCNC(=N)N)C(=O)N[C@@H](Cc1ccccc1)C(=O)N[C@@H](Cc1ccccc1)C(=O)N[C@@H](CCC(N)=O)C(=O)N[C@@H](Cc1ccccc1)C(=O)N[C@@H](CCC(N)=O)C(=O)N[C@@H](Cc1ccccc1)C(=O)N[C@@H](CCCCN)C(N)=O [CM-57, Dmt-DArg-Phe-Phe-Gln-Phe*-Gln-Phe-Lys-NH2] (H-[Dmt][dR]FFQFQFK-NH2; N-terminus assumed) | – | – | – | showed the desired sustained release curve | 7.5 | 60 | 2.5 | ~17 |
